Results taken from article PMC9487543 (Antimicrobial Agents and Chemotherapy, 2022).
Read-outs that look alike come from different tables or passages of the source. Marks after values point to notes of the source that are not given here.

Experiments:
[1] = human, in vivo
From the text: Subjects aged 18 to 80 years were enrolled into 1 of 4 groups based on the level of renal function (renal groups). […] Subjects in the Normal group were matched to subjects with renal impairment with regard to gender, age (±10 years), and weight (±10 kg). A single healthy subject may have been the match for more than one subject with renal impairment.
Human dipotassium ethylenediaminetetraacetic acid plasma samples were processed using protein precipitation prior to assay. Urine samples collected for pharmacokinetic analysis in the study were processed and assayed for only taniborbactam using a validated bioanalytical method. […]
(§1) Validated LC-MS/MS methods (LLOQ = 5.00 ng/mL) were used to quantitate the concentrations of taniborbactam in urine.
Estimated plasma pharmacokinetic parameters included the Cmax, time to Cmax (Tmax), AUC through the last measurable observed concentration (AUCt), AUCinf, t1/2, CL, and VZ. For taniborbactam, using the urine observations, the amount excreted unchanged in urine (Ae), fraction excreted unchanged in urine as the percentage of administered dose (Fe), renal clearance (CLR), and nonrenal clearance (CLNR) were calculated. […] If a good estimate of λZ could not be determined for a concentration-time profile, then none of the pharmacokinetic parameters dependent on λZ were calculated. […]

[2] = Plasma pharmacokinetics in hemodialysis-dependent subjects, On-dialysis vs Off-dialysis periods; format: in vivo, human; settings: for AUCinf / CL / Cmax / VZ / t1/2 / AUC(0-inf): single 2 h IV infusion 2 g cefepime + 0.5 g taniborbactam; for AUCinf / CL / Cmax / VZ / AUC(0-inf): geometric mean (geometric CV %); for t1/2: mean (SD)
Protocol: (§2) In addition to the groups enrolled by renal function to study the effect of renal impairment, a group of subjects with ESRD undergoing chronic intermittent hemodialysis were enrolled into a separate group (Group 5; “Dialysis”) to determine the amounts of drug removed by filtration. Hemodialysis used standard commercial dialyzers and membranes. […] A fixed sequence of dialysis timing with respect to dose was used, where the dose was administered prior to dialysis in the first treatment period (“On-dialysis”; Period 1) and administered following dialysis in the second treatment period (“Off-dialysis”; Period 2). […] For the Off-dialysis period, subjects had the SOI begin approximately 6 h after the start of dialysis, which was after the dialysis had been completed.
Additional blood samples, if not already collected by a defined time point, were collected at 1 h after the start of dialysis and again at the end of dialysis.
Human dipotassium ethylenediaminetetraacetic acid plasma samples were processed using protein precipitation prior to assay. Urine samples collected for pharmacokinetic analysis in the study were processed and assayed for only taniborbactam using a validated bioanalytical method. […] Acidified urine and dialysate samples were processed using solid-phase extraction prior to assay. […]
Estimated plasma pharmacokinetic parameters included the Cmax, time to Cmax (Tmax), AUC through the last measurable observed concentration (AUCt), AUCinf, t1/2, CL, and VZ. For taniborbactam, using the urine observations, the amount excreted unchanged in urine (Ae), fraction excreted unchanged in urine as the percentage of administered dose (Fe), renal clearance (CLR), and nonrenal clearance (CLNR) were calculated. The actual sample times were used to calculate the pharmacokinetic parameters. […] If a good estimate of λZ could not be determined for a concentration-time profile, then none of the pharmacokinetic parameters dependent on λZ were calculated.
(§3) For Dialysis subjects (Group 5), the effect of hemodialysis was examined by comparing differences within each subject (On-Dialysis versus Off-Dialysis). The CLd was calculated by taking the individual averaged arterial to venous concentration extraction ratio (CER), multiplying by the reported Qb, and correcting for hematocrit (hct). The hct was estimated as 0.47, an assumption based on the fact that all subjects in the group were male. The amounts of drug removed by hemodialysis (Adial) were calculated using the area under the excretion rate curves, where the rates were determined using the spot dialysis concentrations and estimated dialysate volumes over a 1 min period using the Qd. The fraction of drug removed during hemodialysis, or HER, was then determined by dividing Adial by dose and was expressed as a percentage.

[3] = Urine pharmacokinetics (renal clearance) of taniborbactam by renal group; format: in vivo, human; settings: single 2 h IV infusion 2 g cefepime + 0.5 g taniborbactam, geometric mean (geometric CV %)
Protocol: Urine was collected to further assess taniborbactam pharmacokinetics. Subjects were instructed to empty their bladders completely before study drug administration and just before the end of each collection interval. Urine from each timed interval was collected in a separate container. The exact start dates, stop dates, times of urine collection, and the weight and volume of each collection were recorded. Urine samples were collected within intervals of 0 to 6 h, 6 to 12 h, 12 to 24 h, 24 to 48 h, 48 to 72 h, and 72 to 96 h following the SOI. […] Urine samples were not collected from anuric subjects.
[…]. […] […].

[4] = Dialysis parameters (dialysis clearance, hemodialysis extraction ratio); format: in vivo, human
Protocol: as §2
Human dipotassium ethylenediaminetetraacetic acid plasma samples were processed using protein precipitation prior to assay. Urine samples collected for pharmacokinetic analysis in the study were processed and assayed for only taniborbactam using a validated bioanalytical method. […] Acidified urine and dialysate samples were processed using solid-phase extraction prior to assay.
as §1, §3

[5] = cited from earlier work
[6] = tested on: Ambler Class A, C, and D serine-β-lactamases, and the Ambler class B metallo-β-lactamases; settings: including VIM and NDM; cited from earlier work
[7] = Safety and tolerability in subjects with various degrees of renal impairment; settings: human, in vivo
Protocol: Safety was assessed based on the occurrence of adverse events and on the evaluation of laboratory tests (chemistry, hematology, urinalysis, and coagulation), physical examinations, vital signs, and 12-lead ECGs. Safety was followed through 7 days post-dose.

[8] = Dialysis group, Off-dialysis (n = 7)
[9] = Dialysis group, On-dialysis (n = 6)

## NCCN[C@H]1CC[C@H](CC(=O)N[C@H]2Cc3cccc(C(=O)O)c3OB2O)CC1 [taniborbactam, Taniborbactam]
[1]
  VZ least-square geometric mean ratio (90% CI): 149.94%
[2]; [8]
  AUCinf: 2003 (32.1) h·μg/mL
  CL: 0.245 (29.8) L/h
  Cmax: 37.7 (73.7) μg/mL
  VZ: 23.7 (13.4) L
  t1/2: 70.8 (22.3) h
[2]; [9]
  AUCinf: 851 (23.0) h·μg/mL
  CL: 0.579 (23.0) L/h
  Cmax: 23.4 (9.5) μg/mL
  VZ: 68.1 (15.1) L
  t1/2: 83.7 (21.5) h
[2]; Dialysis group, On-dialysis vs Off-dialysis
  decrease in geometric mean AUC following hemodialysis: 58%
[2]; On-dialysis/Off-dialysis
  AUCinf least-squares GMR (90% CI): 39.29%
[3]; Mild renal impairment (n = 6)
  CLR: 4.23 (22.7) L/h
[3]; Moderate renal impairment (n = 6)
  CLR: 1.59 (21.0) L/h
[3]; Normal renal function (n = 7)
  CLR: 4.37 (17.8)^d L/h
[3]; Severe renal impairment (n = 6)
  CLR: 0.76 (120.3) L/h
[4]; On-dialysis period, 4 h hemodialysis session
  hemodialysis extraction ratio (HER), fraction of dose removed during hemodialysis, mean (SD): 49.7%
[4]; On-dialysis period, 4 h hemodialysis, Qb 350 to 450 mL/min
  dialysis clearance (CLd), mean (SD): 102 (5.3) mL/min
[4]; hemodialysis
  dialyzability: dialyzable
[5]; at steady-state
  dose recovered in urine as unchanged parent compound: approximately 89%
[6]
  β-lactamase inhibition: potent competitive inhibition

## CO/N=C(\C(=O)N[C@@H]1C(=O)N2C(C(=O)[O-])=C(C[N+]3(C)CCCC3)CS[C@H]12)c1csc(N)n1 [cefepime, Cefepime, reference compound]
[2]; male, human, plasma, iv, Dialysis group, Off-dialysis (n = 7)
  AUC(0-inf): 4550 µg·h/mL
[2]; male, human, plasma, iv, Dialysis group, Off-dialysis (n = 7), read-out: Cmax
  Cmax: 165 µg/mL
[2]; male, human, plasma, iv, Dialysis group, On-dialysis (n = 6)
  AUC(0-inf): 1600 µg·h/mL
[2]; male, human, plasma, iv, Dialysis group, On-dialysis (n = 6), read-out: Cmax
  Cmax: 105 µg/mL
[5]; 3 h hemodialysis session
  amount removed during a hemodialysis session: approximately 68%
[5]; following administration of 0.25 to 2 g cefepime
  dose excreted unchanged in urine: at least 80%

## cefepime-taniborbactam
[7]
  adverse events considered related to treatment: 7 of 8
  adverse events mild in severity: 7 of 8
  deaths: no deaths
  number of treatment emergent adverse events: 8
  serious adverse events: No subjects experienced serious adverse events
  subjects who experienced treatment emergent adverse events: 7 subjects
